For series [1], the system named is Human STAT3 mRNA. The experiment in a line: Human STAT3 mRNA dose response in T-24 cells, real-time PCR with PPS 199 (Table 18). The class given is cell-based. As to conditions: 16 hours, − decrease, + increase relative to untreated control. Summed up: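 Bladder carcinoma T-24 cells transfected with oligonucleotide at 18.75, 37.5, 75 or 150 nM plus 3 ug/mL LIPOFECTIN per 100 nM, 16 h. STAT3 mRNA quantified by real-time PCR (PPS 199), normalized with Ribogreen; change given relative to untreated cells.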

In series [2] the test system is Human STAT3 mRNA. The experiment in a line: Human STAT3 mRNA dose response in T-24 cells, real-time PCR with PPS 2033 (Table 19). The class given is cell-based. The following applies: 16 hours, − decrease, + increase relative to untreated control. The essentials: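 T-24 cells got oligonucleotide at 18.75, 37.5, 75 or 150 nM with LIPOFECTIN (3 ug/mL per 100 nM oligo) for 16 h. STAT3 mRNA was quantified by real-time RT-PCR with primer-probe set PPS 2033, normalized to RiboGreen total RNA, and expressed as change versus untreated cells.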

Oligonucleotides are written 5' to 3', each unit as a sugar letter and its base; * is a phosphorothioate linkage, no mark a phosphodiester; rarer units and linkages stand in square brackets, end groups in braces. Plain capitals give the bases only. e = 2'-O-(2-methoxyethyl) (MOE); [5mC] = 5-methylcytosine; d = 2'-deoxy (DNA)

On to “337332 (antisense eG*eA*eA*eG*e[5mC]*d[5mC]*d[5mC]*dT*dT*dG*d[5mC]*d[5mC]*dA*dG*d[5mC]*e[5mC]*eA*eT*eG*eT) [compound 337332]”, for which the “Percent change of STAT3 expression using PPS 199” value (shortened to “Percent change … using PPS 199”) in the series with Human STAT3 mRNA [1] (18.75 nM oligonucleotide) is −63%; in the series on Human STAT3 mRNA [1] (37.5 nM oligonucleotide), −79%; with Human STAT3 mRNA [1] (75 nM oligonucleotide), −87%; in the series on Human STAT3 mRNA [1] (150 nM oligonucleotide), −92%. Moreover, the “Percent change of STAT3 expression using PPS 2033” value (“Percent change … using PPS 2033” below) is −66% with Human STAT3 mRNA [2] (18.75 nM oligonucleotide), −79% in the series with Human STAT3 mRNA [2] (37.5 nM oligonucleotide), −85% in the series on Human STAT3 mRNA [2] (75 nM oligonucleotide) and −91% with Human STAT3 mRNA [2] (150 nM oligonucleotide).
As for “337333 (antisense eA*eA*eG*eG*eA*dG*dA*dA*dG*d[5mC]*d[5mC]*d[5mC]*dT*dT*dG*e[5mC]*e[5mC]*eA*eG*e[5mC]) [compound 337333]”, the “Percent change … using PPS 199” value in the series with Human STAT3 mRNA [1] (18.75 nM oligonucleotide) is reported as −48%; with Human STAT3 mRNA [1] (37.5 nM oligonucleotide), −73%; with Human STAT3 mRNA [1] (75 nM oligonucleotide) it was −82%; in the series on Human STAT3 mRNA [1] (150 nM oligonucleotide), −88%. In addition, the “Percent change … using PPS 2033” value in the series with Human STAT3 mRNA [2] (18.75 nM oligonucleotide) is recorded as −46%; with Human STAT3 mRNA [2] (37.5 nM oligonucleotide), −70%; with Human STAT3 mRNA [2] (75 nM oligonucleotide), −82%; with Human STAT3 mRNA [2] (150 nM oligonucleotide) it was −90%.
Consider “337348 (antisense eT*e[5mC]*e[5mC]*eG*eA*dA*dT*dG*d[5mC]*d[5mC]*dT*d[5mC]*d[5mC]*dT*d[5mC]*e[5mC]*eT*eT*eG*eG) [compound 337348]”, for which the “Percent change … using PPS 199” value with Human STAT3 mRNA [1] (18.75 nM oligonucleotide) is −61%; with Human STAT3 mRNA [1] (37.5 nM oligonucleotide) it was −77%; in the series with Human STAT3 mRNA [1] (75 nM oligonucleotide), −82%; in the series with Human STAT3 mRNA [1] (150 nM oligonucleotide), −86%. The “Percent change … using PPS 2033” value was −53% with Human STAT3 mRNA [2] (18.75 nM oligonucleotide), −76% with Human STAT3 mRNA [2] (37.5 nM oligonucleotide), −83% with Human STAT3 mRNA [2] (75 nM oligonucleotide) and −86% with Human STAT3 mRNA [2] (150 nM oligonucleotide).

(Values after patent US20050074879A1, “Antisense oligonucleotide modulation of STAT3 expression” (priority 2000, published 2005).)
